Measurements reported in patent US20250381289A1, “EGFR AND C-MET BISPECIFIC BINDING AGENTS, CONJUGATES THEREOF AND METHODS OF USING THE SAME” (GENMAB A/S, priority 2024, published 2025).

Test system: EGFR and cMET co-expressed tumor cell lines (A431, A549, MDA-MB-468, MKN-45, NCI-H441, NCI-H1975)
Experiment: Binding activity of parent mAbs by flow cytometry
Details: flow cytometry on tumor cell lines, FIGS. 1A-1F, Table 5; compared with zalutumumab (zalu) or cetuximab
Experimental: EGFR and cMET co-expressed tumor cell lines including A431 (ATCC® CRL-1555), A549 (ATCC® CCL-185, Provided by Procell), MDA-MB-468 (ATCC® HTB-132, Provided by Procell), MKN-45 (CL-0292, Provided by Procell), NCI-H441 (ATCC® HTB-174, Provided by COBIOER), NCI-H1975 (ATCC® CRL-5908, Provided by Procell) were selected for evaluating antibody binding activity by flow cytometry.
A431 was cultured with DMEM medium (Gibco, Cat #C11995500BT) containing 10% FBS. MDA-MB-468, MKN-45, NCI-H441 and NCI-H1975 were cultured with RPMI 1640 medium (Gibco, Cat #11875093) containing 10% FBS. A549 was cultured with F12K medium (Gibco, Cat #21127030) containing 10% FBS. Each antibody was incubated with different cell lines (1×10^5 cells/well) for 30 min in 0.2 mL FACS buffer (1×PBS with 0.1% BSA) at 4° C. After wash, cells were incubated with 100 μL PE-conjugated anti human Fc (Abcam, Ab98596, 1:500 dilution) for 30 min at 4° C. After wash with PBS, cells were resuspended in FACS buffer and analyzed by flow cytometer (Beckman, CytoFLEX).

| Substance | binding activity / affinity of parent EGFR mAbs (summary) |
| --- | --- |
| Panitumumab: parent EGFR mAb; sequences in Table 2 [reference compound] | Stronger affinity than cetuximab, binding remains |
| Nimotuzumab: parent EGFR mAb; sequences in Table 2 [reference compound] | Lower affinity than zalutumumab, no significant |
| Nectitumumab: parent EGFR mAb; sequences in Table 2 as Necitumumab [reference compound] | Stronger affinity than zalu, |
